# In US11446269B2, “Methods of reducing or preventing oxidation of small dense LDL or membrane polyunsaturated fatty acids” (Amarin Pharmaceuticals Ireland Limited, priority 2014, dated 2022):
# Experiments:
# [1] = Glucose-induced membrane lipid peroxidation (LOOH, CHOD-iodide assay) in DLPC/cholesterol multilamellar vesicles (Example 4); assay type: biochemical; conditions: glucose 200 mg/dL
# Method: Vitamin E (α-tocopherol) was also purchased from Sigma-Aldrich and prepared in ethanol at 1.0 mM (ε=3.06×10^4 M^−1 cm^−1 at 294 nm) just prior to experimental use. […] All test compounds were further diluted in ethanol or aqueous buffer as needed. Glucose was prepared in saline buffer (0.5 mM HEPES, 154 mM NaCl, pH 7.3) at 11.0 mM (200 mg/dL). CHOD-iodide color reagent (stock) was prepared, with slight modification, as described by from El-Saadani et al. (J. […] Samples were shell-dried under nitrogen gas and placed under vacuum for 1 h to remove residual solvent. […] Lipid suspensions were then vortexed for 3 min at ambient temperature to form MLVs. All MLV samples were subjected to time-dependent autoxidation by incubating at 37° C. in an uncovered, shaking water bath. This method allows lipid peroxidation to occur gradually without requiring the use of exogenous initiators. Small aliquots (5-100 μL) of each sample were removed, immediately following MLV preparation (0 hour) and after exposing samples to oxidative conditions for 72 or 96 hour, and combined with 1.0 mL of activated CHOD-iodide color reagent. Aliquot volume was reduced with each successive time point to ensure that spectrophotometric readings were within the optimal adsorption range. Test samples were covered and incubated in darkness at room temperature for at least 4 hr. Sample absorbances were then measured against a CHOD blank at 365 nm using a Beckman DU-640 spectrophotometer. The CHOD colorimetric assay is based on the oxidation of iodide (I^−) by lipid hydroperoxide (LOOH) to form triiodide (I3^−), the quantity of which is directly proportional to the amount of LOOH present in the lipid sample. The molar absorptivity (c) of I3^− is 2.46×10^4 M^−1 cm^−1 at 365 nm. […] The concentration of glucose selected was consistent with previous experimental studies of hyperglycemia under controlled laboratory conditions or observed in well-defined animal models of Type II diabetes following a glucose challenge. […] Values in FIG. 1 are mean±S.D. (N=6). EPA inhibited the peroxidative effects of glucose by 88% and 86% at 72 and 96 hours, respectively, which was highly significant (p<0.001) as compared to glucose treatment alone. […] Overall ANOVA—0 hour data: p=0.6655, F=0.4185; 72 hour data: p<0.0001, F=428.72; 96 hour data: p<0.0001, F=322.01.
# [2] = X-ray diffraction of cholesterol domains in POPC/cholesterol model membranes, C/P 1.5:1 (Example 9); conditions: drug-to-phospholipid mole ratio 1:30, C/P 1.5:1
# Method: Multilamellar vesicles (MLVs) were prepared as binary mixtures that include palmitoyloleoylphosphatidylcholine (POPC) (1.0 mg total phospholipid per sample) and cholesterol at an elevated cholesterol-to-phospholipid (C/P) mole ratio of 1.5:1. […] Samples were shell-dried under nitrogen gas and placed under vacuum for 3 hours to remove residual solvent at room temperature. After desiccation, each sample was resuspended in saline buffer (0.5 mM HEPES, 154 mM NaCl, pH 7.3) to yield a final phospholipid concentration of 2.5 mg/mL. Lipid suspensions were then vortexed for 3 minutes at ambient temperature to form MLVs.
# Briefly, a 100 μL aliquot of each MLV preparation (containing 250 μg MLV) was transferred to a Lucite® sedimentation cell fitted with an aluminum foil substrate designed to collect MLVs into a single membrane pellet upon centrifugation. Samples were then loaded into a Sorvall AH-629 swinging bucket rotor (DuPont Corp., Wilmington, Del.) and centrifuged at 35,000 g, 5° C., for 90 minutes.
# After centrifugal orientation, sample supernatants were aspirated and aluminum foil substrates, each supporting a single membrane pellet, were removed from the sedimentation cells. Sample pellets were dried for 5-10 minutes at ambient conditions, mounted onto curved glass supports, and placed in hermetically-sealed, brass or glass containers (for immediate analysis or temporary storage, respectively). All x-ray diffraction experiments were conducted at 20° C., 74% relative humidity. The latter was established by exposing membrane samples to saturated solutions of […] (K2C4H4O6.½H2O) for at least 1 hour prior to experimental analysis.
# Oriented membrane samples were aligned at grazing incidence with respect to a collimated, mono-chromatic CuKα x-ray beam (Kα1 and Kα2 unresolved; λ=1.54 Å) produced by a Rigaku Rotaflex RU-200, high-brilliance microfocus generator (Rigaku-MSC, The Woodlands, Tex.) as previously described (Mason et al., Biophys. J., vol. 55(4), pages 769-778 (1989)). The samples were initially subjected to x-ray diffraction analysis at least 12 hours after formation of the membrane pellets and retested for up to several days. Analytical x-rays were generated by electron bombardment of a rotating copper anode and are filtered through a thin nickel foil to provide monochromatic radiation (λ=1.54 Å). Collimation of the x-ray beam was achieved using a single Franks mirror. […]
# The d-space for any given membrane multi bilayer is a measurement of the unit cell periodicity of the membrane lipid bilayer (e.g., the distance from the center of one lipid bilayer to the next including surface hydration), and is calculated from Bragg's Law, hλ=2d sin θ, where h is the diffraction order, λ is the wavelength of the x-ray radiation (1.54 Å), d is the membrane lipid bilayer unit cell periodicity, and θ is the Bragg angle equal to one-half the angle between the incident beam and scattered beam.
# The presence of cholesterol domains in a given membrane sample results in the production of distinct Bragg (diffraction) peaks having singular periodicity values of 34 and 17 Å (typically referred to as first- and second-order cholesterol domain peaks). Under the specific temperature and relative humidity conditions established for these experiments, the second-order, 17 Å cholesterol domain peak was well-delineated from other, neighboring cholesterol and phospholipid diffraction peaks and was thus used to quantitate relative cholesterol domain peak intensity. […]
# unfractionated LDL [3] = experiment: Copper-induced oxidation of unfractionated LDL, TBARS (Example 7); assay type: biochemical, human; conditions: 10 μM, 1 hr, vs vehicle-treated controls
# Method: (§1) An experiment to study the antioxidant effect of EPA in LDL and small dense […] performed. […] Fenofibrate, gemfibrozil, and niacin were purchased from Sigma-Aldrich. […] Vitamin E was also incubated with sample aliquots as a positive control.
# sdLDL = experiment: Glucose-induced sdLDL oxidation, MDA/TBARS (Example 10); assay type: biochemical, human; conditions: glucose 200 mg/dL; for effect on glucose-induced sdLDL oxidation: 10.0 μM
# Method: Vitamin E (α-tocopherol) purchased from Sigma-Aldrich was prepared in ethanol at 1.0 mM (ε=3.06×10^4 M^−1 cm^−1 at 294 nm) prior to experimental use. Test compounds were further diluted in ethanol or aqueous buffer as needed. Phosphate Buffered Saline (PBS) purchased from Sigma-Aldrich was prepared in double distilled water at 10 mM (138 mM NaCl, 2.7 mM KCl, pH 7.4). […] Lipid oxidation was measured by the colorimetric detection of malondialdehyde (MDA), a marker of oxidative stress.
# human sdLDL [4] = experiment: Copper-induced sdLDL oxidation, TBARS (Example 7); assay type: biochemical; conditions: 1 hr; for effect on sdLDL oxidation: 10 μM, vs vehicle-treated controls
# Method: as §1
# human sdLDL [5] = experiment: Copper-induced sdLDL oxidation, TBARS after 2 hr (Example 6); assay type: biochemical
# Method: Venous blood was collected from healthy volunteers into vacutainer tubes containing sodium EDTA. Plasma was separated by centrifugation at 3000 g for 25 min at 4° C. and adjusted to a density of 1.020 g/mL with KBr. Triglyceride-rich lipoproteins (TGRL) and LDL fractions were then isolated by sequential centrifugation at 70,000 rpm at 4° C. in a Beckman LE-80 ultracentrifuge using a Beckman 50.4Ti rotor (Beckman Coulter, Inc., Fullerton, Calif.). The TGRL fraction (with a relative density of <1.020) was aspirated from the top of the centrifugate and discarded, leaving an LDL-enriched infranate (with a relative density of 1.020 to 1.063). The plasma LDL fraction was further fractionated into LDL1, LDL2, LDL3, and LDL4 (sdLDL) subfractions with relative densities of 1.020 to 1.035, 1.035 to 1.050, 1.050 to 1.063, and 1.063 to 1.075, respectively. The sdLDL subfraction was retained for additional experimentation. Plasma and lipoprotein fractions were maintained at 4° C. and protected from excessive exposure to light. Prior to oxidation experiments, EDTA was removed from the lipoprotein fraction using PD-10 desalting columns (GE Healthcare, Piscataway N.J.). After equilibration of the column with phosphate buffered saline (PBS), 2.5 mL of the lipoprotein fraction was loaded on the column and the flow-through discarded. The lipoprotein was then eluted with 3 mL of PBS. The LDL fractions were further diluted with PBS to obtain a 100 μg/mL apoB100 concentration.
# LDL and sdLDL subfractions (0.6 mL each) were incubated with either 10 μL vehicle (ethanol) or 10 μL drug stock solution for 30 min to 1 hr at 37° C. Oxidation was initiated by the addition of 10 μM CuSO4. After 2 hr, 100 μL aliquots were removed from each subfraction and combined with 1.0 mL thiobarbituric acid (0.5%), 10 μL trichloroacetic acid (5%), 10 μL BHT (5 mg/mL in methanol), and 10 μL EDTA (5 mM). […]. Sample TBARS concentrations were determined spectrophotometrically by measuring sample absorbances against a standard curve derived from the hydrolysis of 1,1,3,3-tetramethoxypropane.
# unfractionated LDL [6] = experiment: Copper-induced oxidation of unfractionated LDL, TBARS after 2 hr (Example 6); assay type: biochemical, human; conditions: 1.0 μM to 10.0 μM (data not shown)
# Method: Venous blood was collected from healthy volunteers into vacutainer tubes containing sodium EDTA. […] Plasma and lipoprotein fractions were maintained at 4° C. and protected from excessive exposure to light. Prior to oxidation experiments, EDTA was removed from the lipoprotein fraction using PD-10 desalting columns (GE Healthcare, Piscataway N.J.). After equilibration of the column with phosphate buffered saline (PBS), 2.5 mL of the lipoprotein fraction was loaded on the column and the flow-through discarded. The lipoprotein was then eluted with 3 mL of PBS. The LDL fractions were further diluted with PBS to obtain a 100 μg/mL apoB100 concentration.
# [7] = Small angle x-ray diffraction of glucose- and peroxidation-induced cholesterol domain formation (Example 4); conditions: any time point (0, 72, 96 h), 1:30, glucose 200 mg/dL, vs control
# Method: After centrifugal orientation, sample supernatants were aspirated and aluminum foil substrates, each supporting a single membrane pellet, were removed from the sedimentation cells. […] All x-ray diffraction experiments were conducted at 20° C., 74% relative humidity.
# Oriented membrane samples were aligned at grazing incidence with respect to a collimated, mono-chromatic CuKα x-ray beam (Kα1 and Kα2 unresolved; λ=1.54 Å) produced by a Rigaku Rotaflex RU-200, high-brilliance microfocus generator (Rigaku-MSC, The Woodlands, Tex.) as previously described (Mason et al., Biophys. J., vol. 55(4), pages 769-778 (1989)).
# Routines written in Origin 8.6 (OriginLab Corporation, Northampton, Mass.) were used to determine total peak area (associated with all diffraction peaks in a given pattern) against which the second-order cholesterol domain peak was normalized.
structure (smiles),measurement,setting,value
"CC(C)c1c(C(=O)Nc2ccccc2O)c(-c2ccccc2)c(-c2ccc(F)cc2)n1CC[C@@H](O)C[C@@H](O)CC(=O)O [ATM, Atorvastatin ortho- (o-) hydroxy (active) metabolite]",antioxidant effect on glucose-induced LOOH formation,"[1]; 1.0 μM, 96 hours",potent antioxidant effects
"Cc1ccc(C)c(OCCCC(C)(C)C(=O)O)c1 [Gemfibrozil, gemfibrozil]",% change Vs control (cholesterol domain peak intensity),[2],10.9 ± 43.3%
same,effect on cholesterol domains,[2],no significant changes in cholesterol domain size
same,effect on unfractionated LDL oxidation,unfractionated LDL [3],no significant effect
same,effect on glucose-induced sdLDL oxidation,sdLDL,did not inhibit
same,effect on sdLDL oxidation,human sdLDL [4],no significant effect
"CC1(C)[C@@H](O[C@H]2O[C@H](C(=O)O)[C@@H](O)[C@H](O)[C@H]2O[C@@H]2O[C@H](C(=O)O)[C@@H](O)[C@H](O)[C@H]2O)CC[C@]2(C)[C@H]3C(=O)C=C4[C@@H]5C[C@@](C)(C(=O)O)CC[C@]5(C)CC[C@@]4(C)[C@]3(C)CC[C@@H]12 [Glyc, glycyrrhizin]",reduction in cholesterol domain peaks vs vehicle,[2],54.9%
CC(C)c1c(C(=O)Nc2ccccc2)c(-c2ccccc2)c(-c2ccc(F)cc2)n1CC[C@@H](O)C[C@@H](O)CC(=O)O [atorvastatin],effect on unfractionated LDL oxidation,unfractionated LDL [3],did not have any significant antioxidant activity
same,effect on sdLDL oxidation,human sdLDL [4],did not have any significant antioxidant activity
same,inhibition of sdLDL oxidation (TBARS formation),"human sdLDL [4]; each agent at 10 μM, vs vehicle",0.1±7%
"Cc1c(C)c2c(c(C)c1O)CC[C@@](C)(CCC[C@H](C)CCC[C@H](C)CCCC(C)C)O2 [vitamin E, α-tocopherol]",effect on unfractionated LDL oxidation,unfractionated LDL [3],no significant effect
same,effect on sdLDL oxidation,human sdLDL [5]; 1.0 μM to 10.0 μM,did not inhibit sdLDL oxidation except at the highest concentration
same,reduction of TBARS levels,"human sdLDL [5]; 10.0 μM, 10 μM CuSO4, vs vehicle",26%
same,effect on LOOH formation / lipid peroxidation,"[1]; 72- and 96-hour time points, 1:30 drug-to-phospholipid mole ratio",no significant effect
same,effect on LDL oxidation,unfractionated LDL [6],did not inhibit LDL oxidation at any concentration
same,effect on cholesterol domain formation,[7],no significant effect
same,effect on glucose-induced sdLDL oxidation,sdLDL,failed to inhibit sdLDL oxidation
same,increase in sdLDL oxidation,sdLDL; vs glucose-treated controls,63%
same,effect on sdLDL oxidation,human sdLDL [4],no significant effect
